Measurements as given in US20220220095A1, “N-((HETEROARYL)METHYL)-1-TOSYL-1H-PYRAZOLE-3-CARBOXAMIDE DERIVATIVES AS Kv3 POTASSIUM CHANNEL ACTIVATORS FOR TREATING NEUROLOGICAL AND [sequence] DISORDERS” (H. Lundbeck A/S, priority 2019, published 2022).

Target: T1, hKv3.1b (Homo sapiens, UniProt P48547)
T1 construct: expressed in transfected cells
T1 sequence (P48547 1-585 isoform P48547-2): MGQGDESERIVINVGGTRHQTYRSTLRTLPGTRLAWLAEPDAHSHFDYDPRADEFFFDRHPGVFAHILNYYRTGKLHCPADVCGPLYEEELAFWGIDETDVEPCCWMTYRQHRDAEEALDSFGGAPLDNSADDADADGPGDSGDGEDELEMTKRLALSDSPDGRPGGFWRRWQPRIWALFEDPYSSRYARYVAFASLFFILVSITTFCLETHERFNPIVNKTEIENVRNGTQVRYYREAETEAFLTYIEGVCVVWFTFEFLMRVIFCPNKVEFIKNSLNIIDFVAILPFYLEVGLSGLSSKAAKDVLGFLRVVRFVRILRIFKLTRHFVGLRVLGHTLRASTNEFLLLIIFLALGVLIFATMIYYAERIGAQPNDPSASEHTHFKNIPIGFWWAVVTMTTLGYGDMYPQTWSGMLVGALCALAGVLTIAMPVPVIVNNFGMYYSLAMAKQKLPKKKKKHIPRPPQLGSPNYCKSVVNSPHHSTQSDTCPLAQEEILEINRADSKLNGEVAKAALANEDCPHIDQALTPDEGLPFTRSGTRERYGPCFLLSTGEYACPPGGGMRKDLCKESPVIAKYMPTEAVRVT
Assay: Automated whole-cell patch-clamp (QPatch-16x) on HEK-293 cells stably expressing hKv3.1b: shift of voltage threshold for channel activation
Format: cell-based
Conditions: HEK-293 hKv3.1b; for ECdelta5mV: concentration needed to shift the threshold 5 mV, read out from fitted concentration response curve; for Max Delta threshold: maximum absolute shift of activation threshold to more hyperpolarized potentials at the tested concentrations (0.37, 1.11, 3.33, 10, 30 μM)
Procedure: HEK-293 cells stably expressing hKv3.1b was used for the experiments. Cells were cultured in DMEM medium supplemented with 10% Fetal Bovine Serum, 100 ug/mL Geneticidin and 100 u/mL Penicillin/Streptomycin (all from Gibco). Cells were grown to 80-90% confluency at 37° C. and 5% CO2. On the day of the experiment the cells were detached from the tissue culture flasks by Detachin and resuspended in serum free medium containing 25 mM HEPES and transferred to the cell hotel of the QPatch. The cells were used for experiments 0-5 hours after detachment.
Patch-clamp recordings were performed using the automated recording system QPatch-16x (Sophion Bioscience, Denmark). Cells were centrifuged, SFM removed and the cells were resuspended in extracellular buffer containing (in mM): 145 NaCl, 4 KCl, 1 MgCl2, 2 CaCl2, 10 HEPES and 10 glucose (added fresh on the day of experiment); pH 7.4 adjusted with NaOH, 305 mOsm adjusted with sucrose.
Single cell whole-cell recordings were carried out using an intracellular solution containing (in mM): 120 KCl, 32.25/10 KOH/EGTA, 5.374 CaCl2, 1.75 MgCl2, 10 HEPES, 4 Na2ATP (added fresh on the day), pH 7.2 adjusted with KOH, […] adjusted with sucrose. Cell membrane potentials were held at −80 mV and currents were evoked by voltage steps (200 ms duration) from −70 mV to +10 mV (in 10 mV increments).
Leak subtraction protocol was applied at −33% of the sweep amplitude, and serial resistance values were constantly monitored.
Any cell where serial resistance exceeded 25 MOhm, membrane resistance less than 200 MOhm or current size at −10 mV less than 200 pA was eliminated from the subsequent analysis.
Data analysis was performed using Sophion's QPatch assay software in combination with Microsoft Excel™ (Redmond, Wash., USA).
Current voltage relationships were plotted from the peak current at the individual voltage steps normalized to the vehicle addition at 10 mV. The voltage threshold for channel activation was defined as 5% activation of the peak current at 10 mV in presence of vehicle. The activity of the compounds was described as the ability to shift this current voltage relationship to more hyperpolarized potentials and is given as the maximum absolute shift possible at the tested concentrations (0.37, 1.11, 3.33, 10, 30 μM). Concentration response curves were plotted from the threshold shift at the individual concentrations and were fitted excel fit model 205 sigmodal dose-response model (fit=A+((B−A)/1+((C/x)^D)))), where A is the minimum value, B the maximum value, C the EC50 value and D the slope of the curve. The concentration needed to shift the threshold 5 mV was readout from this curve (ECdelta 5 mV).

For Cc1ccc(S(=O)(=O)n2ccc(C(=O)NCc3cn(C)nn3)n2)cc1 [Compound 46, 1-(4-methylbenzene-1-sulfonyl)-N-[(1-methyl-1H-1,2,3-triazol-4-yl)methyl]-1H-pyrazole-3-carboxamide], the ECdelta5mV was 1800 nM and the “Max Delta threshold” value was 22 mV.

Cc1ccc(S(=O)(=O)n2ccc(C(=O)NCc3cn(C)cn3)n2)cc1 [Compound 53, 1-(4-methylbenzene-1-sulfonyl)-N-[(1-methyl-1H-imidazol-4-yl)methyl]-1H-pyrazole-3-carboxamide] was tested, and the ECdelta5mV was 1900 nM and the “Max Delta threshold” value was 20 mV.

In the case of Cc1noc(CNC(=O)c2ccn(S(=O)(=O)c3ccccc3C)n2)n1 [Compound 23, 1-(2-methylbenzene-1-sulfonyl)-N-[(3-methyl-1,2,4-oxadiazol-5-yl)methyl]-1H-pyrazole-3-carboxamide], the ECdelta5mV is reported as 5300 nM and the “Max Delta threshold” value is reported as 13 mV.

In the case of COc1ccc(S(=O)(=O)n2ccc(C(=O)NCc3nc(C)cs3)n2)cc1 [Compound 6, 1-(4-methoxybenzene-1-sulfonyl)-N-[(4-methyl-1,3-thiazol-2-yl)methyl]-1H-pyrazole-3-carboxamide], the ECdelta5mV is reported as 1300 nM and the “Max Delta threshold” value is reported as 22 mV.

For Cc1ccc(S(=O)(=O)n2ccc(C(=O)NCc3ncon3)n2)cc1 [Compound 57, 1-(4-methylbenzene-1-sulfonyl)-N-[(1,2,4-oxadiazol-3-yl)methyl]-1H-pyrazole-3-carboxamide], the ECdelta5mV was 4900 nM and the “Max Delta threshold” value was 13 mV.

Cc1ccc(S(=O)(=O)n2ccc(C(=O)NCc3cncnc3)n2)cc1 [Compound 54, 1-(4-methylbenzene-1-sulfonyl)-N-[(pyrimidin-5-yl)methyl]-1H-pyrazole-3-carboxamide] was tested, and the ECdelta5mV was 2400 nM and the “Max Delta threshold” value was 21 mV.

Cc1ccc(S(=O)(=O)n2ccc(C(=O)NCc3ccno3)n2)cc1 [Compound 55, 1-(4-methylbenzene-1-sulfonyl)-N-[(1,2-oxazol-5-yl)methyl]-1H-pyrazole-3-carboxamide] was tested, and the ECdelta5mV was 1800 nM and the “Max Delta threshold” value was 20 mV.

In the case of Cc1cc(CNC(=O)c2ccn(S(=O)(=O)c3ccccc3)n2)on1 [Compound 14, 1-(benzenesulfonyl)-N-[(3-methyl-1,2-oxazol-5-yl)methyl]-1H-pyrazole-3-carboxamide], the ECdelta5mV is reported as 4500 nM and the “Max Delta threshold” value is reported as 14 mV.

In the case of Cc1ccc(S(=O)(=O)n2ccc(C(=O)NCc3ccn(C)n3)n2)cc1 [Compound 39, 1-(4-methylbenzene-1-sulfonyl)-N-[(1-methyl-1H-pyrazol-3-yl)methyl]-1H-pyrazole-3-carboxamide], the ECdelta5mV is reported as 1600 nM and the “Max Delta threshold” value is reported as 21 mV.

For COc1ccc(S(=O)(=O)n2ccc(C(=O)NCc3cc(C)no3)n2)cc1 [Compound 38, 1-(4-methoxybenzene-1-sulfonyl)-N-[(3-methyl-1,2-oxazol-5-yl)methyl]-1H-pyrazole-3-carboxamide], the ECdelta5mV was 1100 nM and the “Max Delta threshold” value was 21 mV.

Cc1cccc(S(=O)(=O)n2ccc(C(=O)NCc3ncc(C)o3)n2)c1 [Compound 18, 1-(3-methylbenzene-1-sulfonyl)-N-[(5-methyl-1,3-oxazol-2-yl)methyl]-1H-pyrazole-3-carboxamide] was tested, and the ECdelta5mV was 7300 nM and the “Max Delta threshold” value was 13 mV.

COc1ccc(S(=O)(=O)n2ccc(C(=O)NCc3cnccn3)n2)cc1 [Compound 43, 1-(4-methoxybenzene-1-sulfonyl)-N-[(pyrazin-2-yl)methyl]-1H-pyrazole-3-carboxamide] was tested, and the ECdelta5mV was 1600 nM and the “Max Delta threshold” value was 25 mV.

For COc1ccc(S(=O)(=O)n2ccc(C(=O)NCc3cnoc3)n2)cc1 [Compound 9, 1-(4-methoxybenzene-1-sulfonyl)-N-[(1,2-oxazol-4-yl)methyl]-1H-pyrazole-3-carboxamide], the ECdelta5mV was 3900 nM and the “Max Delta threshold” value was 13 mV.

With Cc1ccc(S(=O)(=O)n2ccc(C(=O)NCc3cnccn3)n2)cc1 [Compound 24, 1-(4-methylbenzene-1-sulfonyl)-N-[(pyrazin-2-yl)methyl]-1H-pyrazole-3-carboxamide] the ECdelta5mV was 2000 nM and the “Max Delta threshold” value was 23 mV.

In the case of COc1ccc(S(=O)(=O)n2ccc(C(=O)NCc3ccon3)n2)cc1 [Compound 8, 1-(4-methoxybenzene-1-sulfonyl)-N-[(1,2-oxazol-3-yl)methyl]-1H-pyrazole-3-carboxamide], the ECdelta5mV is reported as 3800 nM and the “Max Delta threshold” value is reported as 16 mV.

COc1ccc(S(=O)(=O)n2ccc(C(=O)NCc3cnc(C)cn3)n2)cc1C [Compound 1, 1-(4-methoxy-3-methylbenzene-1-sulfonyl)-N-[(5-methylpyrazin-2-yl)methyl]-1H-pyrazole-3-carboxamide] was tested, and the ECdelta5mV was 1800 nM and the “Max Delta threshold” value was 23 mV.

In the case of Cc1ccc(S(=O)(=O)n2ccc(C(=O)NCc3cnsc3)n2)cc1 [Compound 33, 1-(4-methylbenzene-1-sulfonyl)-N-[(1,2-thiazol-4-yl)methyl]-1H-pyrazole-3-carboxamide], the ECdelta5mV is reported as 2800 nM and the “Max Delta threshold” value is reported as 12 mV.

For COc1ccc(S(=O)(=O)n2ccc(C(=O)NCc3cnccn3)n2)cc1C [Compound 4, 1-(4-methoxy-3-methylbenzene-1-sulfonyl)-N-[(pyrazin-2-yl)methyl]-1H-pyrazole-3-carboxamide], the ECdelta5mV was 2100 nM and the “Max Delta threshold” value was 21 mV.

For COc1ccc(S(=O)(=O)n2ccc(C(=O)NCc3cccnc3)n2)cc1 [Compound 64, 1-(4-methoxyphenyl)sulfonyl-N-(3-pyridylmethyl)pyrazole-3-carboxamide], the ECdelta5mV was 1600 nM and the “Max Delta threshold” value was 24 mV.

With Cc1ccc(S(=O)(=O)n2ccc(C(=O)NCc3nncs3)n2)cc1 [Compound 47, 1-(4-methylbenzene-1-sulfonyl)-N-[(1,3,4-thiadiazol-2-yl)methyl]-1H-pyrazole-3-carboxamide] the ECdelta5mV was 3300 nM and the “Max Delta threshold” value was 16 mV.

With Cc1cnc(CNC(=O)c2ccn(S(=O)(=O)c3ccc(F)cc3C)n2)cn1 [Compound 66, 1-(4-fluoro-2-methyl-phenyl)sulfonyl-N-[(5-methylpyrazin-2-yl)methyl]pyrazole-3-carboxamide] the ECdelta5mV was 2400 nM and the “Max Delta threshold” value was 31 mV.

For Cc1cccc(S(=O)(=O)n2ccc(C(=O)NCc3cnn(C)c3)n2)c1 [Compound 21, 1-(3-methylbenzene-1-sulfonyl)-N-[(1-methyl-1H-pyrazol-4-yl)methyl]-1H-pyrazole-3-carboxamide], the ECdelta5mV was 3700 nM and the “Max Delta threshold” value was 16 mV.

COc1ccc(S(=O)(=O)n2ccc(C(=O)NCc3cnc(C)cn3)n2)cc1F [Compound 74, 1-(3-fluoro-4-methoxy-phenyl)sulfonyl-N-[(5-methylpyrazin-2-yl)methyl]pyrazole-3-carboxamide] was tested, and the ECdelta5mV was 3200 nM and the “Max Delta threshold” value was 17 mV.

In the case of Cc1ccc(S(=O)(=O)n2ccc(C(=O)NCc3cnc(C)cn3)n2)c(F)c1 [Compound 80, 1-(2-fluoro-4-methyl-phenyl)sulfonyl-N-[(5-methylpyrazin-2-yl)methyl]pyrazole-3-carboxamide], the ECdelta5mV is reported as 1500 nM and the “Max Delta threshold” value is reported as 31 mV.

For COc1ccc(S(=O)(=O)n2ccc(C(=O)NCc3ccc(C)cn3)n2)cc1 [Compound 40, 1-(4-methoxybenzene-1-sulfonyl)-N-[(5-methylpyridin-2-yl)methyl]-1H-pyrazole-3-carboxamide], the ECdelta5mV was 2000 nM and the “Max Delta threshold” value was 21 mV.
